IC50, Ki and pIC50 data for five molecules are collected here from ChEMBL document CHEMBL4819035, “C-2-Linked Dimeric Strychnine Analogues as Bivalent Ligands Targeting Glycine Receptors” (J Nat Prod, 2021).

The target in test [1] is T1, Glycine receptor (alpha-1/beta) (Homo sapiens, UniProt P23415+P48167). As to the kind of experiment: Antagonist activity at human glycine receptor subunit alpha-1beta expressed in human tsA201 cells assessed as reduction in glycine-induced response incubated for 30 mins by fluorescence-based FLIPR membrane potential blue assay. The test is classed as cell-based. Conditions: read-out: IC50.

Test [2] deals with T2, Glycine receptor subunit alpha-1 (Homo sapiens, UniProt P23415).
T2 sequence (P23415 whole entry): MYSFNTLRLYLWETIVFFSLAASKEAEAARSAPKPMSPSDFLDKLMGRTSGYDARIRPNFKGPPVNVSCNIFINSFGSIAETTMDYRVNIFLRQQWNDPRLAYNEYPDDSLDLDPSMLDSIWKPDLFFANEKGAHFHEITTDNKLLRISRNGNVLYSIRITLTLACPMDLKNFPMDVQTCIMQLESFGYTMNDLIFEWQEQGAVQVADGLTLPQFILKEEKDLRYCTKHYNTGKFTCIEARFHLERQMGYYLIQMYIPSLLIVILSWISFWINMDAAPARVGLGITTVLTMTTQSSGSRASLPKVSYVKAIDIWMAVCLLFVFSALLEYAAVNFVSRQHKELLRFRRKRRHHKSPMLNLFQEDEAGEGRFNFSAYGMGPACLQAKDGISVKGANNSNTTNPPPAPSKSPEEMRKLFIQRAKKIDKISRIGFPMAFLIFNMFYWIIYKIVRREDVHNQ
As to the kind of experiment: Antagonist activity at human glycine receptor subunit alpha-1 expressed in human tsA201 cells assessed as reduction in glycine-induced response incubated for 30 mins by fluorescence-based FLIPR membrane potential blue assay. The note with it: for IC50: read-out: IC50. The format is cell-based.

For test [3], the target named is T2, Glycine receptor subunit alpha-1. As to the kind of experiment: Antagonist activity at human glycine receptor subunit alpha-1 expressed in HEK293 cells assessed as reduction in glycine-induced currents by whole-cell patch-clamp assay. The test is classed as cell-based.
Test [4] deals with T1, Glycine receptor (alpha-1/beta). As to the kind of experiment: Antagonist activity at human glycine receptor subunit alpha-1beta expressed in HEK293 cells assessed as reduction in glycine-induced currents by whole-cell patch-clamp assay. The format is cell-based.
Test [5] addresses T2, Glycine receptor subunit alpha-1. As to the kind of experiment: Antagonist activity at human glycine receptor subunit alpha-1 assessed as inhibition of glycine-induced current measured at the onset of compound application by patch-clamp assay.
Test [6] has the same target. As to the kind of experiment: Displacement of [3H]strychnine from human glycine receptor subunit alpha-1 expressed in HEK293 cell membranes preincubated for 30 mins followed by [3H]strychnine addition and measured after 30 mins by liquid scintillation counting method. Details: species or system Membrane. For orientation: Displacement assays read how much labelled ligand stays bound in the presence of the test substance.

For test [7] the target is unchanged. In words: Antagonist activity at human glycine receptor subunit alpha-1 assessed as inhibition of glycine-induced current measured at the later state of compound application by patch-clamp assay. (In general: In patch-clamp work, channel activity is measured electrically.)

T1 sequence (P48167 whole entry, one chain of several): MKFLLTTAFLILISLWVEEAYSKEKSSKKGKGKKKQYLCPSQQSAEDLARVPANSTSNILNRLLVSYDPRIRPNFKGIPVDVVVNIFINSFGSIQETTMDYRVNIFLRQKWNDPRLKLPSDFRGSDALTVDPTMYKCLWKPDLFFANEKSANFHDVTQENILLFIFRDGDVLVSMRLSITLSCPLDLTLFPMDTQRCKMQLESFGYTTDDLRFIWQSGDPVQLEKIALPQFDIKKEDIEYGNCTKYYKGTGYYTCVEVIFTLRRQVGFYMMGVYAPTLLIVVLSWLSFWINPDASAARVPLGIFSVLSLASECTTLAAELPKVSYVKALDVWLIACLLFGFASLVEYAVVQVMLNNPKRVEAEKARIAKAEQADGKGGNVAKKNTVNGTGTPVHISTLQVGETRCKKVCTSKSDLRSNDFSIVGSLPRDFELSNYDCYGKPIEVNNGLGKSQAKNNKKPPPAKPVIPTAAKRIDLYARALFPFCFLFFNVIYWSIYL

As usually defined, the IC50 is the concentration that gives 50% inhibition. For the molecule `O=C(CCCCCCCCC(=O)Nc1ccc2c(c1)[C@@]13CCN4CC5=CCO[C@H]6CC(=O)N2[C@H]1[C@H]6[C@H]5C[C@H]43)Nc1ccc2c(c1)[C@@]13CCN4CC5=CCO[C@H]6CC(=O)N2[C@H]1[C@H]6[C@H]5C[C@H]43`, the IC50 stood at 10000 nM in test [1], 7200 nM in test [2], 1500 nM in test [3] and 1900 nM in test [4].

For `O=C(CCCCCCCCCCC(=O)Nc1ccc2c(c1)[C@@]13CCN4CC5=CCO[C@H]6CC(=O)N2[C@H]1[C@H]6[C@H]5C[C@H]43)Nc1ccc2c(c1)[C@@]13CCN4CC5=CCO[C@H]6CC(=O)N2[C@H]1[C@H]6[C@H]5C[C@H]43`, the IC50 is 1800 nM in test [1], 1100 nM in test [2], 720 nM in test [3] and 800 nM in test [4].

What is called Ki is a dissociation constant, usually derived from enzyme kinetics or from competition with a known ligand. As to `O=C(CCOCCOCCOCCOCCOCCOCCOCCOCCOCCOCCOCCOCCC(=O)NCCCCCCCCCCC(=O)Nc1ccc2c(c1)[C@@]13CCN4CC5=CCO[C@H]6CC(=O)N2[C@H]1[C@H]6[C@H]5C[C@H]43)NCCCCCCCCCCC(=O)Nc1ccc2c(c1)[C@@]13CCN4CC5=CCO[C@H]6CC(=O)N2[C@H]1[C@H]6[C@H]5C[C@H]43`, the IC50 in test [1] was found to be 3900 nM; in test [5] it was 3310 nM; in test [2], 10000 nM; in test [7] it was 67 nM. The Ki in test [6] was determined as 204 nM.

Take `O=C(CCCCCCC(=O)Nc1ccc2c(c1)[C@@]13CCN4CC5=CCO[C@H]6CC(=O)N2[C@H]1[C@H]6[C@H]5C[C@H]43)Nc1ccc2c(c1)[C@@]13CCN4CC5=CCO[C@H]6CC(=O)N2[C@H]1[C@H]6[C@H]5C[C@H]43`: the IC50 came to 10000 nM in test [1], 6900 nM in test [2], 1100 nM in test [3] and 1300 nM in test [4].

The pIC50 is the IC50 on a negative log10 scale, so that one unit is a factor of ten. Consider `O=C1C[C@@H]2OCC=C3CN4CC[C@]56c7ccccc7N1[C@H]5[C@H]2[C@H]3C[C@H]46` [STRYCHNINE], for which the IC50 in test [1] (tsa201) came out at 510 nM; in test [5], 134 nM; in test [3], 50 nM; in test [4], 60 nM; in test [7], 27 nM. Also, the pIC50 in test [2] (tsa201) was 6.82. In test [6], this molecule displayed a Ki of 5 nM.
